{"source": "patent US20220218710A1", "about": "“Inhibition of Neddylation for Treatment of MS” (The Regents of the University of California, priority 2019, published 2022)", "tested_on": "experimental autoimmune encephalomyelitis (EAE)", "assay_type": "in vivo, C57BL/6 mice", "procedure": "FIGS. 3A, 3B, and 3C. FIGS. 3A, 3B, and 3C depicts pevonedistat treatment effects in an MS animal model. FIG. 3A depicts the trial design: C57BL/6 mice were treated daily starting on Day−1 with either Pevonedistat (20 mg/kg) or placebo (n=10/group). The result shown here is one representative of two independent experiments. EAE was induced through active immunization with myelin oligodendrocyte (MOG) peptide 35-55 following standard protocols (triangles). Weights were taken on D−1, D7, and D14 (dots). Animals were scored daily. Mice were sacrificed and brain and spinal cords of were harbored on Day 16 at peak disease (n=4/group) (triangle). FIG. 3B depicts EAE severity: Diseases was assessed blinded using a […] scale from 0 to 5 (0=no symptoms, 5=death). Data shown here are from one representative of two experiments. FIG. 3C depicts mice weights over the course of the experiment. ****p-value<0.001, 2-way ANOVA test.\nEAE induction and neddylation inhibition in mice. Four weeks old female C57BL/6 mice were used. All mice were housed in closed caging systems and provided with standard irradiated chow diet, acidified water ad libitum and housed under a 12-hour light cycle. Pevonedistat (MLN4924) (Chemietek Inc., Indianapolis, Ind.) was dissolved in DMSO and further diluted in 30% of PEG300 and 5% of TWEEN in ddH2O at a concentration of 40 mg/mL and stored at −20° C. 7-8 week old mice were treated daily with 20 mg/kg Pevonedistat or vehicle (same concentration of buffer without Pevonedistat) starting at day −1. Mice were immunized subcutaneously on day 0 with 100 μg MOG35-55 emulsified in incomplete Freund's adjuvant supplemented with Mycobacterium tuberculosis followed by two intraperitoneal injections on Day 0 and Day 2 with 300 ng pertussis each. […] Mice were scored daily on a […] scale in a blinded fashion as follows: 0, no deficit; 1, limp tail only; 2, limp tail and hind limb weakness; 3, complete hind limb paralysis; 4, complete hind limb paralysis and partial/complete forelimb paralysis; 5, death.\nInhibition of neddylation reduces EAE. […] Pevonedistat (MLN4924), which is a small molecule and first-in-class inhibitor of NAE was next used in experimental autoimmune encephalomyelitis (EAE), an established MS mouse model driven by a strong CD4+ T cell response (FIG. 3A). Although Pevonedistat was originally tested as a cancer therapy, recent studies proposed this agent as a potential therapeutic target for immune-related diseases due to the important role of neddylation in immune cell functions.", "key": {"[1]": {"conditions": "20 mg/kg daily, EAE mice at peak disease"}}, "data": [{"smiles": "NS(=O)(=O)OC[C@@H]1C[C@@H](n2ccc3c(N[C@H]4CCc5ccccc54)ncnc32)C[C@@H]1O", "note": "[Pevonedistat, pevonedistat]", "values": [{"measurement": "EAE severity (10-point scale from 0 to 5, scored daily, blinded)", "setting": "20 mg/kg daily from day -1, compared to placebo-treated group, FIG. 3B", "value": "significantly reduced EAE severity"}, {"measurement": "density of CD3+ T cells in spinal cord", "setting": "[1]", "value": "decreased densities"}, {"measurement": "density of Iba1+ myeloid cells in spinal cord", "setting": "[1]", "value": "decreased densities"}, {"measurement": "spinal cord inflammation (inflammatory infiltrates)", "setting": "20 mg/kg daily, EAE spinal cords at peak disease, vs placebo", "value": "dramatic reduction in spinal cord inflammation"}, {"measurement": "demyelination, histological assessment of CNS tissue", "setting": "20 mg/kg daily, at peak disease (Day 16)", "value": "significant reduction of demyelination"}, {"measurement": "mice weights during the disease course", "setting": "20 mg/kg daily, placebo group had significant weight loss at peak of disease, FIG. 3C", "value": "steady weight"}]}]}
